According to article PMC7217877, “N-AS-triggered SPMs are direct regulators of microglia in a model of Alzheimer’s disease” (Nature Communications, 2020):
Values joined by “and” are separate entries in the source; they are usually repeats but may differ in a detail not shown here. Identical values can stand only once.

Columns and labels:
COX2 WT = target: T1, COX2 WT (Homo sapiens, UniProt P35354); assay: in vitro [14C] acetylation assay of purified COX2; assay type: biochemical; conditions: purified COX2 + 14C-labelled acetyl donor, 2 h, 37 °C, scintillation counter, replicates, in cpm (unit assumed)
T1 construct: His (N); made in house
T1 sequence (P35354 18-604): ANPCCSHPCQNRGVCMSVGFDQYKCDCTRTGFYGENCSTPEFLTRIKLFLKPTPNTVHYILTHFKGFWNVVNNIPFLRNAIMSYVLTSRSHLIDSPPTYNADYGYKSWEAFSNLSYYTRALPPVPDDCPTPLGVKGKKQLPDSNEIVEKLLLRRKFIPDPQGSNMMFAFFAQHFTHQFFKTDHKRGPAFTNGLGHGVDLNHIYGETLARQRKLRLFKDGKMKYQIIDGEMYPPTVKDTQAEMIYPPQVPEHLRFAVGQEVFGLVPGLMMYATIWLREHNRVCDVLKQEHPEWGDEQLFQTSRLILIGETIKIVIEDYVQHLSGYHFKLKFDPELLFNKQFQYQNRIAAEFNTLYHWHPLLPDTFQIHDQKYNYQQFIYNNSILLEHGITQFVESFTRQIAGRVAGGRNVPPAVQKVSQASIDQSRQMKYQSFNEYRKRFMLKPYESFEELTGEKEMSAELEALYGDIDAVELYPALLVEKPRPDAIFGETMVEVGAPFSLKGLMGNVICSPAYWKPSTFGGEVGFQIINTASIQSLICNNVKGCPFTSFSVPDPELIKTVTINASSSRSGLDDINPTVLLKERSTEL

[1] = system: immortalized human microglia; assay: LM-SPM profile of human microglia (LC-MS/MS, Supplementary Table 3, Fig 6d); assay type: cell-based; set-up: 15R-LxA4 / RvE1 / RvD1: unit not given here; conditions: for 15R-LxA4 / RvD1 / RvE1: human microglia, sFig 6d; for 11-HEPE in human microglia / 11-HETE in human microglia / 13-HDHA in human microglia / 15-HEPE in human microglia / 15-HETE in human microglia / 15R-LXA4 in human microglia / 17-HDHA in human microglia / 18-HEPE in human microglia / PGE3/PGD3 in human microglia / PGH2/PGE2 in human microglia / RvD1 in human microglia / RvE1 in human microglia: mean±s.e.m.

## CC(=O)SCCNC(=O)CCNC(=O)[C@H](O)C(C)(C)COP(=O)(O)OP(=O)(O)OC[C@H]1O[C@@H](n2cnc3c(N)ncnc32)[C@H](O)[C@@H]1OP(=O)(O)O [Acetyl-CoA, acetyl-CoA]
COX2 WT; listed as C14 Acetyl CoA
  C14 radioactivity of COX2, acetylation assay (Fig 1b): 4565 and 4620 and 4766 and 3817
[1]; Aβ 50 µM +
  15R-LxA4: 29.8592 and 28.6097 and 30.6248 and 29.0936 and 30.1012
  RvD1: 2.566 and 2.828 and 2.839 and 2.697 and 2.833 and 2.768
  RvE1: 14.9946 and 13.574 and 15.0361 and 14.2843 and 14.305

## CC(=O)Oc1ccccc1C(=O)O [Aspirin, acetylsalicylic acid, reference compound]
COX2 WT; listed as C14 Aspirin
  C14 radioactivity of COX2, acetylation assay (Fig 1b): 16445 and 14504 and 14566 and 16561 and 14595 and 14332 and 14859

## CCCCCCCCCCCCC/C=C/[C@@H](O)[C@H](CO)NC(C)=O [N-AS, N-((2S,3R,E)-1,3-Dihydroxyoctadec-4-en-2-yl)acetamide]
COX2 WT; listed as C14 N-AS
  C14 radioactivity of COX2, acetylation assay (Fig 1b): 347557 and 414691 and 285538 and 348458 and 418276 and 416508 and 283195
[1]; Aβ 50 µM + treatment
  11-HEPE in human microglia: 371.7±4.0 ng/ml*106cell
  11-HETE in human microglia: 148.4±1.9 ng/ml*106cell
  13-HDHA in human microglia: 133.0±1.8 ng/ml*106cell
  15-HEPE in human microglia: 237.9±3.7 ng/ml*106cell
  15-HETE in human microglia: 625.4±1.7 ng/ml*106cell
  15R-LXA4 in human microglia: 19.8±0.2 ng/ml*106cell
  17-HDHA in human microglia: 707.6±8.2 ng/ml*106cell
  18-HEPE in human microglia: 1763.6±30.4 ng/ml*106cell
  PGE3/PGD3 in human microglia: 132.9±2.0 ng/ml*106cell
  PGH2/PGE2 in human microglia: 95.7±0.9 ng/ml*106cell
  RvD1 in human microglia: 2.13±0.02 ng/ml*106cell
  RvE1 in human microglia: 8.6±0.3 ng/ml*106cell
[1]; Aβ-treated human microglia + N-AS
  SPM production, in words: improved SPM production
[1]; Control (no Aβ) + treatment
  11-HEPE in human microglia: 451.8±4.6 ng/ml*106cell
  11-HETE in human microglia: 161.8±0.9 ng/ml*106cell
  13-HDHA in human microglia: 133.9±2.2 ng/ml*106cell
  15-HEPE in human microglia: 284.1±4.0 ng/ml*106cell
  15-HETE in human microglia: 625.5±6.8 ng/ml*106cell
  15R-LXA4 in human microglia: 28.7±0.3 ng/ml*106cell
  17-HDHA in human microglia: 633.8±9.2 ng/ml*106cell
  18-HEPE in human microglia: 1636.9±19.7 ng/ml*106cell
  PGE3/PGD3 in human microglia: 113.1±1.6 ng/ml*106cell
  PGH2/PGE2 in human microglia: 105.8±1.1 ng/ml*106cell
  RvD1 in human microglia: 2.36±0.02 ng/ml*106cell
  RvE1 in human microglia: 18.5±0.4 ng/ml*106cell
[1]; Aβ 50 µM +
  15R-LxA4: 20.003 and 19.3859 and 19.5943 and 20.5159 and 19.4901 and 20.0551
  RvD1: 2.139 and 2.0589 and 2.21 and 2.099 and 2.134 and 2.154
  RvE1: 9.835 and 7.339 and 9.039 and 8.587 and 8.189 and 8.813
[1]; Aβ 50 µM -
  15R-LxA4: 29.0008 and 28.9046 and 27.6099 and 29.7445 and 28.2572 and 28.6772
  RvD1: 2.289 and 2.353 and 2.443 and 2.321 and 2.398 and 2.382
  RvE1: 19.7237 and 16.8195 and 19.2333 and 18.2716 and 18.0264 and 18.7524

## Ab: Aβ 1–42 (Invitrogen, 03112) used to induce an AD environment in cells
[1]; Aβ 50 µM alone
  11-HEPE in human microglia: 490.2±2.4 ng/ml*106cell
  11-HETE in human microglia: 174.9±2.0 ng/ml*106cell
  13-HDHA in human microglia: 128.2±1.8 ng/ml*106cell
  15-HEPE in human microglia: 272.1±7.3 ng/ml*106cell
  15-HETE in human microglia: 564.3±4.4 ng/ml*106cell
  15R-LXA4 in human microglia: 0.03±0.0 ng/ml*106cell
  17-HDHA in human microglia: 561.8±2.7 ng/ml*106cell
  18-HEPE in human microglia: 1515.3±10.4 ng/ml*106cell
  PGE3/PGD3 in human microglia: 163.9±2.5 ng/ml*106cell
  PGH2/PGE2 in human microglia: 78.7±0.8 ng/ml*106cell
  RvD1 in human microglia: 0.01±0.0 ng/ml*106cell
  RvE1 in human microglia: 0.01±0.0 ng/ml*106cell
